Test [1] has as its system H3K18Ac in HB-CLS-2 cells. Nature of the test: H3K18AC in-cell western (ICW) assay. The test is classed as cell-based. The note with it: H3K18Ac in-cell western; read-out: CREBBP ICW IC50. In outline: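 In-cell western: after methanol fixation, blocking, overnight 4° C anti-H3K18Ac staining, then 800CW secondary plus DRAQ5 for DNA content, integrated intensities were scanned at 800 and 700 nm. Before this, compound exposure lasted 2 hr at 37° C in HB-CLS-2 cells plated 16–24 hours earlier. Values expressed as IC50 (μM).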

A further test deals with 647V cells. Nature of the test: High throughput proliferation (HTP) assay. The test is classed as cell-based. The note with it: high throughput proliferation, read-out: CREBBP HTP IC50. An outline of the steps:
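Proliferation IC50 (micromolar) derived from a 7-day CellTiter-Glo viable-cell readout in 647V cells exposed, in triplicate, to rising compound concentrations; cells grown in DMEM plus 15% heat-inactivated FBS at 37° C under 5% CO2.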

For a further test, the target named is T1, CREBBP (1084-1701) (Homo sapiens, UniProt Q92793).
T1 construct: measured in the following biochemical assay using CREBBP (1084-1701); purchased
Nature of the test: Biochemical assay for CREBBP (1084-1701), SAMDI. The following applies: SAMDI, read-out: CREBBP Biochemistry IC50. An outline of the steps: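 Acetyltransferase activity measured by SAMDI mass spectrometry after capture on biochip. Enzyme sat with compound 30 min at RT before acetyl-CoA and biotinylated H3 11-25 (K14R, K23R) peptide were added for 30 min at RT. Formic acid quench, bicarbonate neutralisation; IC50 values reported.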

The target in a further test is T2, EP300 (P300(1048-1664)) (Homo sapiens, UniProt Q09472).
T2 construct: P300(1048-1664)
T2 sequence (Q09472 1048-1664): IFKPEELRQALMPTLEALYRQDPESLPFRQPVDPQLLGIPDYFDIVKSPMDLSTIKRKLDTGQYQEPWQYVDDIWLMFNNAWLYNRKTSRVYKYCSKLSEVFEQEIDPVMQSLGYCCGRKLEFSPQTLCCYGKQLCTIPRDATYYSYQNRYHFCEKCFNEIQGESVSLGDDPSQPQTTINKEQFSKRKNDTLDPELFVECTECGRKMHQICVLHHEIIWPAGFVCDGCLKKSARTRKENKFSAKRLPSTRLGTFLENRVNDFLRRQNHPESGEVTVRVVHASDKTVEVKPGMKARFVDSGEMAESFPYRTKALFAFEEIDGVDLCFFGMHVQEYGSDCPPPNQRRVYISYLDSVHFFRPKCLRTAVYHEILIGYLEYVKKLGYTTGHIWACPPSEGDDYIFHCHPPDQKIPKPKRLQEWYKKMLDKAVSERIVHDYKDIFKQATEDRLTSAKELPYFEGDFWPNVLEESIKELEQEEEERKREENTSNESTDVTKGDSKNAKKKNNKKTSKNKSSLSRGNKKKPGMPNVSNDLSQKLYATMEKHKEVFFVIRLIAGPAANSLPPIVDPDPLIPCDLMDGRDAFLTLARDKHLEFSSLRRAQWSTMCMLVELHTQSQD
Nature of the test: Biochemical assay for EP300, SAMDI. The note with it: EP300, SAMDI; read-out: EP300 Biochemistry IC50. The text has this: The following example describes materials and methods relating to a biochemical assay for EP300. IC50 values (micromolar (μM)) are summarized in Table 1, Table 2, and Table 3 under the column labeled: “EP300 Biochemistry IC50 (micromolar).”

Like-named read-outs stand apart in the source and are kept apart here.

T1 sequence (Q92793 1084-1701): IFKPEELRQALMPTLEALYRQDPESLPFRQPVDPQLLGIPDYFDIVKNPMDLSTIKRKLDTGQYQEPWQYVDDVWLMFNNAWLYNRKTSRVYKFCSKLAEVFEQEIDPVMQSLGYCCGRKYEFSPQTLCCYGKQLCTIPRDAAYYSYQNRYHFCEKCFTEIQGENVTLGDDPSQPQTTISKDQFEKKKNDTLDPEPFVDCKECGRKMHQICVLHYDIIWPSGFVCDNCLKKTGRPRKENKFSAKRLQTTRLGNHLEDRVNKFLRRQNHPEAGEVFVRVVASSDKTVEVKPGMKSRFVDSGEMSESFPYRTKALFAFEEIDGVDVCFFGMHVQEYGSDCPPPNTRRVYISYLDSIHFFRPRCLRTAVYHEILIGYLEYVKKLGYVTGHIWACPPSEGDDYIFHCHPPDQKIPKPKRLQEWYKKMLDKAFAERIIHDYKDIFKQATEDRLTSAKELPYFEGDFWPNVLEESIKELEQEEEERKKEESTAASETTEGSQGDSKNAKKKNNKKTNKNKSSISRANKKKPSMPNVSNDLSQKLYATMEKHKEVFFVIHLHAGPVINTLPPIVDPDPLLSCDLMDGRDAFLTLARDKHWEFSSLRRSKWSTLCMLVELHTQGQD

In the case of `CCn1ncc(CN(C)C(=O)c2nc(-c3ccc(OCCCO)cc3C)nc3ccc(Cl)cc23)c1C` [Compound 53], the IC50 (as a rule, the concentration that inhibits the measured activity by half) in test [1] was determined as 570 nM; in the test with 647V cells (Homo sapiens, 647-V) it was 460 nM; on CREBBP (1084-1701), 130 nM; on EP300 (P300(1048-1664)), 280 nM.
For `CCn1ncc(CN(C)C(=O)c2nc(-c3ccc(OCCN4CCCC4)c(Cl)c3)nc3ccc(Cl)cc23)c1C` [Compound 54], the IC50 turned out to be 570 nM in test [1]; 280 nM in the test on 647V cells (Homo sapiens, 647-V); 63 nM on CREBBP (1084-1701); 330 nM at EP300 (P300(1048-1664)).
Regarding `CCn1ncc(CN(C)C(=O)c2nc(-c3cc(C)cc(NC4CCNCC4)c3)nc3ccc(Cl)cc23)c1C` [Compound 55], the IC50 in test [1] amounted to 600 nM; in the test with 647V cells (Homo sapiens, 647-V), 240 nM; on CREBBP (1084-1701) it was 21 nM; on EP300 (P300(1048-1664)) it was 7 nM.
In the case of `CCn1ncc(CN(C)C(=O)c2nc(-c3ccc(OCCNC(C)=O)cc3Cl)nc3ccc(Cl)cc23)c1C` [Compound 56], the IC50 worked out at 630 nM in test [1]; 520 nM with 647V cells (Homo sapiens, 647-V); 280 nM at CREBBP (1084-1701); 580 nM at EP300 (P300(1048-1664)).
For `CCn1ncc(CN(C)C(=O)c2nc(-c3ccc(NC4CCOCC4)cn3)nc3ccc(Cl)cc23)c1C` [Compound 58], the IC50 in test [1] was 670 nM; in the test on 647V cells (Homo sapiens, 647-V) it was 1400 nM; on CREBBP (1084-1701), 1500 nM; on EP300 (P300(1048-1664)) it was 610 nM.
Turning to `CCn1ncc(CN(C)C(=O)c2nc(-c3cc(Cl)cc(OCCNC)c3)nc3ccc(Cl)cc23)c1C` [Compound 60], the IC50 worked out at 880 nM in test [1]; 500 nM in the test with 647V cells (Homo sapiens, 647-V); 23 nM on CREBBP (1084-1701); 11 nM at EP300 (P300(1048-1664)).
Taken in the same sequence, the figures for `CCn1ncc(CN(C)C(=O)c2cc(-c3cccc(N)n3)nc3ccc(Cl)cc23)c1C` [Compound 63] were 710 nM, 1500 nM, 440 nM and 240 nM.
In the case of `CCn1ncc(CN(C)C(=O)c2nc(-c3ccc(NC4CCOCC4)c(OC)c3)nc3ccc(Cl)cc23)c1C` [Compound 64], the IC50 in test [1] was 710 nM; with 647V cells (Homo sapiens, 647-V), 580 nM; on CREBBP (1084-1701), 79 nM; at EP300 (P300(1048-1664)), 300 nM.
`CCn1ncc(CN(C)C(=O)c2nc(-c3cc(C(=O)NC4CCN(C)CC4)n(C)n3)nc3ccc(Cl)cc23)c1C` [Compound 65]: the IC50 in test [1] stood at 720 nM; in the test on 647V cells (Homo sapiens, 647-V), 740 nM; on CREBBP (1084-1701), 410 nM; on EP300 (P300(1048-1664)), 790 nM.
The like results for `CCn1ncc(CN(C)C(=O)c2nc(-c3ccc(OCCCO)c(C)c3)nc3ccc(Cl)cc23)c1C` [Compound 66] were, in that order, 730 nM, 540 nM, 380 nM and 780 nM.
As to `CCn1ncc(CN(C)C(=O)c2nc(-c3ccc4cc[nH]c4c3)nc3ccc(Cl)cc23)c1C` [Compound 67], the IC50 was 780 nM in test [1]; 550 nM in the test on 647V cells (Homo sapiens, 647-V); 280 nM at CREBBP (1084-1701); 250 nM on EP300 (P300(1048-1664)).
Taken in the same sequence, the figures for `CCn1ncc(CN(C)C(=O)c2nc(-c3cc(C)cc(CNC)c3)nc3ccc(Cl)cc23)c1C` [Compound 69] were 880 nM, 420 nM, 100 nM and 610 nM.
Turning to `CCn1ncc(CN(C)C(=O)c2cc(-c3cn(CCNC)cn3)nc3ccc(Cl)cc23)c1C` [Compound 73], the IC50 was found to be 1000 nM in test [1], 1300 nM in the test on 647V cells, 820 nM on CREBBP (1084-1701) and 360 nM on EP300 (P300(1048-1664)).
Turning to `CCn1ncc(CN(C)C(=O)c2cc(-c3ccc(NC(=O)CNC)c(C)n3)nc3ccc(Cl)cc23)c1C` [Compound 74], the IC50 in test [1] came out at 1000 nM; in the test on 647V cells (Homo sapiens, 647-V) it was 1500 nM; on CREBBP (1084-1701), 2100 nM; at EP300 (P300(1048-1664)), 1100 nM.
On to `CCn1ncc(CN(C)C(=O)c2nc(-c3cc(C(=O)NCCCN4CCCC4)[nH]n3)nc3ccc(Cl)cc23)c1C` [Compound 75], for which the IC50 in test [1] came to 1000 nM; in the test with 647V cells (Homo sapiens, 647-V), 510 nM; at CREBBP (1084-1701), 130 nM; on EP300 (P300(1048-1664)) it was 54 nM.
As to `CCn1ncc(CN(C)C(=O)c2nc(-c3ccc(OCCN)c(C)c3)nc3ccc(Cl)cc23)c1C` [Compound 76], the IC50 was 1100 nM in test [1]; 840 nM with 647V cells (Homo sapiens, 647-V); 28 nM on CREBBP (1084-1701); 180 nM on EP300 (P300(1048-1664)).
As for `CCn1ncc(CN(C)C(=O)c2nc(-c3ccnc(N)c3)nc3ccc(Cl)cc23)c1C` [Compound 77], the IC50 in test [1] amounted to 1100 nM; in the test with 647V cells (Homo sapiens, 647-V), 760 nM; on CREBBP (1084-1701) it was 1600 nM; on EP300 (P300(1048-1664)), 1300 nM.
Taken in the same sequence, the figures for `CCn1ncc(CN(C)C(=O)c2nc(-c3cc(C)cc(NC4CCOCC4)c3)nc3ccc(Cl)cc23)c1C` [Compound 78] were 1100 nM, 1200 nM, 67 nM and 66 nM.
For the compound `CCn1ncc(CN(C)C(=O)c2nc(-c3ccc(NCCNC)c(C)n3)nc3ccc(Cl)cc23)c1C` [Compound 79], the IC50 in test [1] came out at 1200 nM; in the test on 647V cells (Homo sapiens, 647-V), 850 nM; on CREBBP (1084-1701), 670 nM; at EP300 (P300(1048-1664)), 2100 nM.
As to `CCn1ncc(CN(C)C(=O)c2nc(-c3cc(C(=O)NCCN4CCCC4)[nH]n3)nc3ccc(Cl)cc23)c1C` [Compound 80], the IC50 in test [1] came out at 1200 nM; in the test on 647V cells (Homo sapiens, 647-V), 1400 nM; at CREBBP (1084-1701), 1200 nM; at EP300 (P300(1048-1664)), 690 nM.
With `CCn1ncc(CN(C)C(=O)c2nc(-c3cc(Cl)cc(CNC)c3)nc3ccc(Cl)cc23)c1C` [Compound 82], the IC50 was 1200 nM in test [1]; 580 nM in the test with 647V cells (Homo sapiens, 647-V); 100 nM at CREBBP (1084-1701); 460 nM at EP300 (P300(1048-1664)).
Regarding `CCn1ncc(CN(C)C(=O)c2nc(-c3ccc(OCCCNC)c(OC)c3)nc3ccc(Cl)cc23)c1C` [Compound 84], the IC50 in test [1] turned out to be 1300 nM; with 647V cells (Homo sapiens, 647-V), 850 nM; on CREBBP (1084-1701), 820 nM; at EP300 (P300(1048-1664)), 2500 nM.
The like results for `CCn1ncc(CN(C)C(=O)c2nc(-c3cccc(Cl)c3)nc3c(CNC)cc(Cl)cc23)c1C` [Compound 85] were, in that order, 1300 nM, 1300 nM, 180 nM and 400 nM.
Turning to `CCn1ncc(CN(C)C(=O)c2nc(-c3ccnc(Cl)c3)nc3ccc(NC)cc23)c1C` [Compound 87], the IC50 in test [1] was determined as 1400 nM; in the test on 647V cells (Homo sapiens, 647-V) it was 1400 nM; on CREBBP (1084-1701), 840 nM; at EP300 (P300(1048-1664)) it was 880 nM.
Regarding `CCn1ncc(CN(C)C(=O)c2nc(-c3ccc4nc[nH]c4c3Cl)nc3ccc(COC)cc23)c1C` [Compound 89], the IC50 in test [1] was 1600 nM; with 647V cells (Homo sapiens, 647-V), 1200 nM; on CREBBP (1084-1701) it was 180 nM; on EP300 (P300(1048-1664)), 1000 nM.
Consider `CCn1ncc(CN(C)C(=O)c2cc(-c3csc(C)n3)nc3ccc(Cl)cc23)c1C` [Compound 90], for which the IC50 in test [1] was found to be 1600 nM; in the test on 647V cells it was 1500 nM; at CREBBP (1084-1701), 340 nM; at EP300 (P300(1048-1664)), 210 nM.
Consider `CCn1ncc(CN(C)C(=O)c2nc(-c3ccc(OCCCN(C)C(=O)OC(C)(C)C)c(C)c3Cl)nc3ccc(Cl)cc23)c1C` [Compound 93], for which the IC50 in test [1] was determined as 1700 nM; in the test on 647V cells (Homo sapiens, 647-V), 1200 nM; on CREBBP (1084-1701) it was 140 nM; at EP300 (P300(1048-1664)) it was 68 nM.

(Values after patent publication US20220144812A1, “QUINOLINE DERIVATIVES AND THEIR USE FOR THE TREATMENT OF CANCER” (Epizyme, Inc., priority 2019, published 2022).)
